Among the data in EP4741392A1, “1H-PYRAZOLO[4,3-C]PYRIDINE COMPOUND, AND COMPOSITION THEREOF AND USE THEREOF” (Shenzhen TargetRx Co., Ltd., priority 2023, dated 2025) are IC50 values, retold here.

Like-named read-outs stand apart in the source and are kept apart here.

What all share (format): cell-based
Test [1] concerns NIH/3T3 BTK C481S cells. In words: Phosphor-BTK(Y223) assay, adherent cells. Conditions: read-out: NIH/3T3 BTK-C481S pBTK. A digest of the protocol: (§1)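 NIH/3T3 cells expressing WT or C481S BTK were pretreated with compound for 0.5 h at 37 °C, then stimulated with 1 mM Na3VO4 (final) for 2 h. Lysates were assayed by HTRF for p-BTK Y223 using the 665/620 nm ratio. IC50 was obtained by nonlinear fit of % inhibition versus 0.5% DMSO control.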

Test [2] has as its system NIH/3T3 BTK WT cells. In words: Phosphor-BTK(Y223) assay, adherent cells. Conditions: read-out: NIH/3T3 BTK-WT pBTK. A digest of the protocol:
as §1

For test [3], the system named is TMD8 cells. Kind of test: Viability assay of TMD8 cells (CTG). Conditions: cell viability, 120 hours. Here is the method:
(§2) The in vitro antiproliferative activity of the compounds of the present disclosure against TMD8 cells and OCI-LY10 cells was assayed using CTG (Cell Titer-Glo) luminescent cell viability assay. The specific assay methods were as follows. • a) TMD8 cells were cultured at 37 °C and 5% CO2 in complete medium [RPMI 1640 (supplier Gibco, product number 22400-089) + 10% FBS (supplier Gibco, product number 10091-148) + 1% P/S (supplier Hyclone, product number SV30010)]; OCI-LY10 cells were cultured at 37 °C and 5% CO2 in medium [IMDM (supplier Gibco, product number 31980-030) + 20% FBS (supplier Gibco, product number 10091-148) + 1% P/S (supplier Hyclone, product number SV30010) + 0.05 mM 2-Mercaptoethanol (supplier Sigma, product number M6250)]. • b) Cells in the logarithmic growth phase were harvested, and the total cell count and viable cell count were determined using a Vi-cell cell counter (supplier: BECKMAN COULTER, product number 2785198). • c) Cell density was adjusted using complete culture medium. Then, the cells were inoculated at 1500 cells per well in a 384-well cell culture plate (supplier Greiner, product number 781090). • d) The cells in the 384-well plate were cultured at 37 °C and 5% CO2 overnight. • e) A 10-fold drug solution was prepared, and then the serially diluted compound was transferred to the corresponding assay wells of the 384-well cell plate so that the final assay concentration was 1000 nM, with 9 concentrations, 3-fold dilutions, and triplicates for each drug concentration. • f) The cells in the 384-well plate with the drug added were cultured at 37 °C and 5% CO2 for another 120 hours. • g) The cells were removed from the incubator, and allowed to equilibrate at room temperature for 30 minutes. The cell state and compound solubility were observed under a microscope. • h) An equal volume of CellTiterGlo solution (supplier Promega, product number G7573) was added to each well, and the plate was incubated at room temperature for 30 minutes. • i) Then, the luminescent signal value was detected on an EnVision instrument (supplier PerkinElmer, product number 2441715).
(§3) The data were analyzed using XL-fit software (supplier: ID Business Solutions Ltd., software version: XL fit 5.5.0.5). Nonlinear regression was performed using X=Log(X), and the X values were transformed using a four-parameter Logistic model 205, from which the IC50 values were calculated. Inhibition rate % = (Max−samplevalue)/Max*100.(Max:DMSOnegativecontrol) [formula]

The test system of test [4] is OCI-LY10 cells. Kind of test: Viability assay of OCI-LY10 cells (CTG). Conditions: cell viability, read-out: OCl-Ly10. Here is the method: as §2, §3
Where [5] appears, read: Mus musculus, NIH3T3, phosphorylated BTK Y223, NIH/3T3 BTK C481S cells.
The mark [6] stands for this setting: Mus musculus, NIH3T3, phosphorylated BTK Y223, NIH/3T3 BTK WT cells.

Consider `COc1ccc(F)cc1C(=O)NCc1ccc(-c2nc(C(C)C(F)(F)F)c(-c3ncccn3)c3[nH]nc(N)c23)cc1` (single isomer, unassigned) [Example 7-1, N-(4-(3-amino-7-(pyrimidin-2-yl)-6-(1,1,1-trifluoropropan-2-yl)-1H-pyrazolo[4,3-c]pyridin-4-yl)benzyl)-5-fluoro-2-methoxybenzamide], for which the IC50 was 5 to 10 nM in test [1] (setting [5]); at most 5 nM in test [2] (setting [6]); at most 5 nM in test [3] (Homo sapiens); at most 5 nM in test [4] (Homo sapiens, OCI-Ly10, 120 h).

As to `COc1ccc(F)cc1C(=O)NCc1ccc(-c2nc(C(C)C(F)(F)F)c(-c3ncccn3)c3[nH]nc(N)c23)cc1` (single isomer, unassigned) [Example 7-2, N-(4-(3-amino-7-(pyrimidin-2-yl)-6-(1,1,1-trifluoropropan-2-yl)-1H-pyrazolo[4,3-c]pyridin-4-yl)benzyl)-5-fluoro-2-methoxybenzamide], the IC50 in test [1] (phosphorylated BTK Y223, NIH/3T3 BTK C481S cells) was 5 to 10 nM; in test [2] (phosphorylated BTK Y223, NIH/3T3 BTK WT cells) it was at most 5 nM; in test [3], at most 5 nM; in test [4] (120 hours) it was at most 5 nM.

`COc1ccc(F)cc1C(=O)NCc1ccc(-c2nc(C(C)C(F)(F)F)c(-c3cc(C)[nH]n3)c3[nH]nc(N)c23)cc1` (stereo not shown) [Example 9, N-(4-(3-amino-7-(5-methyl-1H-pyrazol-3-yl)-6-(1,1,1-trifluoropropan-2-yl)-1H-pyrazolo[4,3-c]pyridin-4-yl)benzyl)-5-fluoro-2-methoxybenzamide]: the IC50 in test [1] (setting [5]) was 10 to 50 nM; in test [2] (setting [6]), 5 to 10 nM; in test [3] (Homo sapiens) it was at most 5 nM; in test [4] (Homo sapiens, OCI-Ly10, 120 h), 5 to 10 nM.

For the compound `COc1ccc(F)cc1C(=O)NCc1ccc(-c2ncc(-c3ccccn3)c3[nH]nc(N)c23)cc1` [Example 15, N-(4-(3-amino-7-(pyridin-2-yl)-1H-pyrazolo[4,3-c]pyridin-4-yl)benzyl)-5-fluoro-2-methoxybenzamide], the IC50 in test [1] (setting [5]) was 5 to 10 nM; in test [2] (setting [6]) it was at most 5 nM; in test [3] (Homo sapiens), at most 5 nM; in test [4] (Homo sapiens, OCI-Ly10, 120 h), 5 to 10 nM.

Turning to `COc1ccc(F)cc1C(=O)NCc1ccc(-c2ncc(-c3ncccn3)c3[nH]nc(N)c23)cc1` [Example 17, N-(4-(3-amino-7-(pyrimidin-2-yl)-1H-pyrazolo[4,3-c]pyridin-4-yl)benzyl)-5-fluoro-2-methoxybenzamide], the IC50 in test [1] (setting [5]) is 5 to 10 nM; in test [2] (setting [6]), at most 5 nM; in test [3] (Homo sapiens), 5 to 10 nM; in test [4] (Homo sapiens, OCI-Ly10, 120 h) it was 10 to 50 nM.

Consider `COc1ccc(F)cc1C(=O)NCc1ccc(-c2ncc(-c3cnccn3)c3[nH]nc(N)c23)cc1` [Example 18, N-(4-(3-amino-7-(pyrazin-2-yl)-1H-pyrazolo[4,3-c]pyridin-4-yl)benzyl)-5-fluoro-2-methoxybenzamide], for which the IC50 in test [1] (setting [5]) is 10 to 50 nM; in test [2] (setting [6]), at most 5 nM; in test [3] (Homo sapiens), 5 to 10 nM; in test [4] (Homo sapiens, OCI-Ly10, 120 h), 10 to 50 nM.

In the case of `COc1ccc(F)cc1C(=O)NCc1ccc(-c2ncc(-c3ccncn3)c3[nH]nc(N)c23)cc1` [Example 19], the IC50 in test [1] (setting [5]) was 5 to 10 nM; in test [2] (setting [6]) it was at most 5 nM; in test [3] (Homo sapiens), 5 to 10 nM; in test [4] (Homo sapiens, OCI-Ly10, 120 h) it was 10 to 50 nM.

For the compound `COc1ccc(F)cc1C(=O)NCc1ccc(-c2ncc(-c3ccc(F)cn3)c3[nH]nc(N)c23)cc1` [Example 21, N-(4-(3-amino-7-(5-fluoropyridin-2-yl)-1H-pyrazolo[4,3-c]pyridin-4-yl)benzyl)-5-fluoro-2-methoxybenzamide], the IC50 was at most 5 nM in test [1] (setting [5]); at most 5 nM in test [2] (setting [6]); at most 5 nM in test [3] (Homo sapiens); 5 to 10 nM in test [4] (Homo sapiens, OCI-Ly10, 120 h).

Take `COc1ccc(F)cc1C(=O)NCc1ccc(-c2ncc(-c3ccn(C)n3)c3[nH]nc(N)c23)cc1` [Example 23, N-(4-(3-amino-7-(1-methyl-1H-pyrazol-3-yl)-1H-pyrazolo[4,3-c]pyridin-4-yl)benzyl)-5-fluoro-2-methoxybenzamide]: the IC50 is at most 5 nM in test [1] (setting [5]); at most 5 nM in test [2] (setting [6]); at most 5 nM in test [3] (Homo sapiens); at most 5 nM in test [4] (Homo sapiens, OCI-Ly10, 120 h).

Take `COc1ccc(F)cc1C(=O)NCc1ccc(-c2ncc(-c3ccc(C(F)(F)F)cn3)c3[nH]nc(N)c23)cc1` [Example 24, N-(4-(3-amino-7-(5-(trifluoromethyl)pyridin-2-yl)-1H-pyrazolo[4,3-c]pyridin-4-yl)benzyl)-5-fluoro-2-methoxybenzamide]: the IC50 was at most 5 nM in test [1] (setting [5]); at most 5 nM in test [2] (setting [6]); at most 5 nM in test [3] (Homo sapiens); 10 to 50 nM in test [4] (Homo sapiens, OCI-Ly10, 120 h).

With `COc1ccc(F)cc1C(=O)NCc1ccc(-c2ncc(-c3ccc(S(C)(=O)=O)cn3)c3[nH]nc(N)c23)cc1` [Example 35, N-(4-(3-amino-7-(5-(methylsulfonyl)pyridin-2-yl)-1H-pyrazolo[4,3-c]pyridin-4-yl)benzyl)-5-fluoro-2-methoxybenzamide], the IC50 is at most 5 nM in test [1] (setting [5]); at most 5 nM in test [2] (setting [6]); at most 5 nM in test [3] (Homo sapiens); at most 5 nM in test [4] (Homo sapiens, OCI-Ly10, 120 h).

For `COc1ccc(F)cc1C(=O)NCc1ccc(-c2ncc(-c3ccc(C)cn3)c3[nH]nc(N)c23)cc1` [Example 37, N-(4-(3-amino-7-(5-methylpyridin-2-yl)-1H-pyrazolo[4,3-c]pyridin-4-yl)benzyl)-5-fluoro-2-methoxybenzamide], the IC50 in test [1] (setting [5]) is at most 5 nM; in test [2] (setting [6]), at most 5 nM; in test [3] (Homo sapiens), at most 5 nM; in test [4] (Homo sapiens, OCI-Ly10, 120 h), at most 5 nM.

As to `COc1ccc(F)cc1C(=O)NCc1ccc(-c2ncc(-c3ccc(C4COC4)cn3)c3[nH]nc(N)c23)cc1` [Example 43, N-(4-(3-amino-7-(5-(oxetan-3-yl)pyridin-2-yl)-1H-pyrazolo[4,3-c]pyridin-4-yl)benzyl)-5-fluoro-2-methoxybenzamide], the IC50 in test [1] (setting [5]) is at most 5 nM; in test [2] (setting [6]), at most 5 nM; in test [3] (Homo sapiens), at most 5 nM; in test [4] (Homo sapiens, OCI-Ly10, 120 h), at most 5 nM.

Consider `COc1ccc(F)cc1C(=O)NCc1ccc(-c2ncc(-c3cc4ncccn4n3)c3[nH]nc(N)c23)cc1` [Example 44, N-(4-(3-amino-7-(pyrazolo[1,5-a]pyrimidin-2-yl)-1H-pyrazolo[4,3-c]pyridin-4-yl)benzyl)-5-fluoro-2-methoxybenzamide], for which the IC50 is at most 5 nM in test [1] (setting [5]); at most 5 nM in test [2] (setting [6]); at most 5 nM in test [3] (Homo sapiens); at most 5 nM in test [4] (Homo sapiens, OCI-Ly10, 120 h).

As for `COc1ccc(F)cc1C(=O)NCc1ccc(-c2ncc(-c3ccn4nccc4n3)c3[nH]nc(N)c23)cc1` [Example 46, N-(4-(3-amino-7-(pyrazolo[1,5-a]pyrimidin-5-yl)-1H-pyrazolo[4,3-c]pyridin-4-yl)benzyl)-5-fluoro-2-methoxybenzamide], the IC50 in test [1] (setting [5]) was 5 to 10 nM; in test [2] (setting [6]) it was at most 5 nM; in test [3] (Homo sapiens) it was at most 5 nM; in test [4] (Homo sapiens, OCI-Ly10, 120 h), 5 to 10 nM.

In the case of `COc1ccc(F)cc1C(=O)NCc1ccc(-c2ncc(-c3ccc(C(=O)N4CCOCC4)cn3)c3[nH]nc(N)c23)cc1` [Example 52, N-(4-(3-amino-7-(5-(morpholine-4-carbonyl)pyridin-2-yl)-1H-pyrazolo[4,3-c]pyridin-4-yl)benzyl)-5-fluoro-2-methoxybenzamide], the IC50 in test [1] (setting [5]) was at most 5 nM; in test [2] (setting [6]), at most 5 nM; in test [3] (Homo sapiens), at most 5 nM; in test [4] (Homo sapiens, OCI-Ly10, 120 h), at most 5 nM.
